Measurements published in the NIST ThermoML archive (doi:10.1016/j.tca.2012.02.012).
± gives the expanded uncertainty stated by the source.

What was measured:
[1] = xn = mol fraction of the nth substance listed; conditions: 1850 K, 101 kPa, Liquid, Knudsen
[2] = excess molar enthalpy (molar enthalpy of mixing); xn = mol fraction of the nth substance listed; conditions: 1850 K, 101 kPa, Liquid, Knudsen

Compound	excess molar Gibbs energy ([1]; x2 = 0.5) [kcal/mol]	excess molar enthalpy ([2]; x2 = 0.5) [kcal/mol]	excess molar Gibbs energy ([1]; x1 = 0.5) [kcal/mol]	excess molar enthalpy ([2]; x1 = 0.5) [kcal/mol]
[Pd] [palladium] + [Fe]	-1.7232 ± 0.000239	-5.999 ± 0.0598		
[Fe] [iron] + [Au]			-0.1819 ± 0.000239	1.76 ± 0.0179
